Literature values, collected in patent US8680055B2, “Methods for decreasing steroidogenesis in prostate cancer cells” (University of Southern California, priority 2009, dated 2014).

How the values were obtained:
[1] = test system: PCa resistant to multiple hormonal therapies; settings: chemotherapy-naive men
[2] = test system: advanced CRPC; settings: phase II trials

Structure (SMILES) | patients with declines in PSA ≧90% ([1]; 6 patients) [%] | patients with declines in PSA ≧50% ([1]; 12 patients) [%] | patients with declines in PSA ≧30% ([1]; 14 patients) [%] | median duration of response [2] | response rate by PSA working group (PSAWG) criteria [2]
CC(=O)O[C@H]1CC[C@@]2(C)C(=CC[C@@H]3[C@@H]2CC[C@]2(C)C(c4cccnc4)=CC[C@@H]32)C1 [abiraterone acetate] | 29 | 57 | 66 |  | 
CC(=O)N1CCN(c2ccc(OCC3COC(Cn4ccnc4)(c4ccc(Cl)cc4Cl)O3)cc2)CC1 (centres unmarked) [ketoconazole] |  |  |  | up to 7 months | 40-62%
